Some test systems named below: 786-0 renal; OVCAR-8 ovarian; SK-OV-3 ovarian; NCI-H460 lung; CAKI-1 renal; BT-549 breast; A498 renal; UACC-257 melanoma; SK-MEL-28 melanoma; HT29 colon; DU-145 prostate; T-47D breast; MDA-MB-435; NCI-H226 lung; MDA-MB-231 breast; SN12C renal; HCT-15 colon; ACHN renal; NCI-H522 lung; SR leukemia.
Holding throughout (assay): growth of human tumour cells (NCI), 48 h

SMILES strings stand for the structures.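 Grown in 96-well plates, cells were treated for 48 hours with each compound at five concentrations. Insufficient inhibition: endpoint recorded as highest concentration tested. TGI is the concentration that stops growth completely.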 A value given as a limit tells only on which side of the number the result lay.

Take `COc1ccc(/C=N/n2c(Cc3ccccc3)n[nH]c2=O)cc1`: the TGI with 786-0 renal, in the experiment on OVCAR-8 ovarian, in the experiment on SK-OV-3 ovarian, in the experiment with NCI-H460 lung, in the experiment with CAKI-1 renal and with BT-549 breast was above 100 µM throughout. Moreover, the TGI with A498 renal, in the experiment on UACC-257 melanoma, in the experiment on SK-MEL-28 melanoma, in the experiment on HT29 colon, in the experiment with DU-145 prostate and with T-47D breast was above 100 µM each time. The TGI with MDA-MB-435, in the experiment on NCI-H226 lung, with MDA-MB-231 breast, with SN12C renal, with HCT-15 colon and with ACHN renal was above 100 µM each time.

For the compound `CC1(CCCCO)C=CC(S(=O)(=O)c2ccccc2)CC1` (stereo not drawn), the TGI was found to be 14.8 µM in the experiment on 786-0 renal; 23.2 µM with OVCAR-8 ovarian; 22.7 µM with SK-OV-3 ovarian; 10.4 µM in the experiment on NCI-H522 lung; 13.2 µM in the experiment on NCI-H460 lung; 23.9 µM with CAKI-1 renal. Also, the TGI in the experiment with BT-549 breast was found to be 27.5 µM; in the experiment with SR leukemia it was 6.71 µM; in the experiment on A498 renal, 21.7 µM; in the experiment with UACC-257 melanoma, 10.9 µM; in the experiment on SK-MEL-28 melanoma, 28.5 µM; in the experiment with HT29 colon it was 5.91 µM. Moreover, the TGI was 17.7 µM in the experiment with DU-145 prostate; 21.8 µM in the experiment on MDA-MB-435; 9.03 µM with NCI-H226 lung; 16.4 µM in the experiment with MDA-MB-231 breast; 23.6 µM in the experiment on SN12C renal; 13.3 µM with HCT-15 colon. For the same compound, the TGI with ACHN renal was determined as 18.1 µM.

Consider `CCCCOCCOCCOC1=C(Cl)C(=O)c2c(O)ccc(O)c2C1=O`, for which the TGI in the experiment with 786-0 renal was 3.4 µM; in the experiment on OVCAR-8 ovarian, 7.43 µM; with SK-OV-3 ovarian, 14.8 µM; in the experiment with NCI-H460 lung, 4.4 µM; with CAKI-1 renal it was 0.388 µM; in the experiment with BT-549 breast it was 2.72 µM. In addition, the TGI in the experiment on SR leukemia came out at 0.117 µM; in the experiment on A498 renal, 4.95 µM; in the experiment with UACC-257 melanoma, 2.6 µM; in the experiment on SK-MEL-28 melanoma, 1.41 µM; in the experiment with HT29 colon, 1.25 µM; in the experiment on DU-145 prostate, 3.16 µM. Moreover, the TGI is 2.52 µM in the experiment with T-47D breast; 3.21 µM in the experiment on NCI-H226 lung; 1.32 µM in the experiment on MDA-MB-231 breast; 2.96 µM in the experiment with SN12C renal; 1.11 µM in the experiment with HCT-15 colon; 3.11 µM in the experiment on ACHN renal.

Consider `Cn1c(=O)n2n(c1=O)C(S(=O)c1ccccc1)C2` (stereo not drawn), for which the TGI in the experiment with 786-0 renal, with OVCAR-8 ovarian, with SK-OV-3 ovarian, in the experiment on NCI-H522 lung, in the experiment on NCI-H460 lung and with CAKI-1 renal was above 100 µM in each case. The TGI with BT-549 breast, with SR leukemia, in the experiment with UACC-257 melanoma, in the experiment with SK-MEL-28 melanoma, with HT29 colon and in the experiment on DU-145 prostate was above 100 µM each time. The TGI with MDA-MB-435, with MDA-MB-231 breast, with SN12C renal, in the experiment on HCT-15 colon and with ACHN renal was above 100 µM in each case.

With `O=C1NC2=NN=C(c3ccc(Br)cc3)CN2NC12c1ccccc1-c1ccccc12`, the TGI with 786-0 renal, with OVCAR-8 ovarian, in the experiment with SK-OV-3 ovarian, with NCI-H522 lung, in the experiment with NCI-H460 lung and with CAKI-1 renal was above 100 µM each time. The TGI in the experiment with BT-549 breast, in the experiment with SR leukemia, in the experiment with A498 renal, in the experiment with UACC-257 melanoma, in the experiment on SK-MEL-28 melanoma and in the experiment with HT29 colon was above 100 µM each time. The TGI with DU-145 prostate, in the experiment with MDA-MB-435, with NCI-H226 lung, in the experiment on MDA-MB-231 breast, with SN12C renal and in the experiment on HCT-15 colon was above 100 µM each time. The TGI in the experiment with ACHN renal is above 100 µM.

As to `Nc1c(C(=O)c2ccccc2)nnc2ccccc12`, the TGI is above 100 µM with 786-0 renal; above 100 µM in the experiment with OVCAR-8 ovarian; 67.1 µM in the experiment on NCI-H460 lung; above 100 µM with CAKI-1 renal; 72.7 µM in the experiment with BT-549 breast; above 100 µM with SR leukemia. The TGI with UACC-257 melanoma is 90.8 µM; in the experiment with SK-MEL-28 melanoma, above 100 µM; in the experiment with HT29 colon, above 100 µM; with DU-145 prostate it was 69.9 µM; in the experiment on MDA-MB-435, 60.3 µM; in the experiment on NCI-H226 lung it was above 100 µM. For the same compound, the TGI was 53.3 µM with MDA-MB-231 breast, above 100 µM in the experiment with HCT-15 colon and 65.4 µM in the experiment with ACHN renal.

`FC(F)(F)c1cnc(N/N=C(/c2ccccc2)c2ccccn2)c(Cl)c1`: the TGI in the experiment with 786-0 renal came to 17.9 µM; with OVCAR-8 ovarian it was 5.79 µM; in the experiment with SK-OV-3 ovarian, 17.9 µM; in the experiment on NCI-H522 lung, 4.74 µM; in the experiment on NCI-H460 lung, 10.5 µM; in the experiment with CAKI-1 renal, 19.6 µM. The TGI is 29.8 µM in the experiment with BT-549 breast; 55.3 µM in the experiment on SR leukemia; 11.5 µM in the experiment with UACC-257 melanoma; above 100 µM in the experiment on SK-MEL-28 melanoma; 18.8 µM in the experiment with HT29 colon; 51.3 µM in the experiment on DU-145 prostate. For the same compound, the TGI in the experiment with MDA-MB-435 was above 100 µM; in the experiment with NCI-H226 lung, 50.4 µM; in the experiment with MDA-MB-231 breast it was 32 µM; in the experiment with SN12C renal, above 100 µM; with HCT-15 colon it was 33.7 µM; in the experiment on ACHN renal it was 13.2 µM.

On to `O=C(c1ccccc1)c1ccc2nc3n(c2c1)C(c1c(Cl)cccc1Cl)SC3` (stereo not drawn), for which the TGI in the experiment on 786-0 renal was above 100 µM; in the experiment on OVCAR-8 ovarian, above 55.5 µM; with SK-OV-3 ovarian it was above 30.7 µM; with NCI-H522 lung it was 5.1 µM; with NCI-H460 lung, above 51.9 µM; in the experiment on CAKI-1 renal, above 51.7 µM. Moreover, the TGI in the experiment on BT-549 breast was above 100 µM; in the experiment with SR leukemia, 8.42 µM; in the experiment with A498 renal, 50.1 µM; in the experiment with UACC-257 melanoma, above 100 µM; in the experiment on SK-MEL-28 melanoma it was above 100 µM; with HT29 colon, 31 µM. Further, the TGI in the experiment on DU-145 prostate was above 94.5 µM; in the experiment on T-47D breast it was 24.5 µM; in the experiment with NCI-H226 lung, above 100 µM; in the experiment on MDA-MB-231 breast, above 100 µM; in the experiment with SN12C renal, above 68.7 µM; in the experiment with HCT-15 colon, above 100 µM. The same compound returned a TGI in the experiment on ACHN renal above 38 µM.

(Values after PubChem BioAssay (NCI).)
